Holding throughout (assay type): cell-based
For one test, the system named is bacteria mixture B. The experiment in a line: Emulsion paint inoculated once with bacteria mixture B, semiquantitative growth evaluation. On the set-up: key: 0: No growth; Minimal growth, 1 to 10 colonies visible over the entire streak; 2: Light growth, maximum 100 colonies; Moderate growth, maximum 300 to 400 colonies; Uniform growth, >400 colonies, single colonies still clearly recognizable; 5: Heavy growth, too many colonies to count, but no growth over the entire streak; 6: Full growth, barely any single colonies still apparent, growth over the entire streak. Particulars: Example 35, emulsion paint, +500 ppm BIT. The text has this: In examples 35 to 38 below, synergistic interaction between guanidine and antimicrobial substances with respect to microbial infestation was studied using an emulsion paint and a laundry detergent or cleaning composition by adding particular amounts of guanidine salts and isothiazolinones and examining their stability against microbial infestation: […] The laundry detergent was a heavy-duty laundry detergent without preservatives (pH 8.1), and the cleaning composition was an all-purpose detergent without preservatives (pH 7.6), each likewise made in the laboratory, without addition of the otherwise usual conventional preservatives. To each paint was added—individually and in combination—particular concentrations of guanidinium hydrochloride, benzisothiazolinone (BIT), and a mixture of chloromethylisothiazolinone (CIT) and methylisothiazolinone (MIT). The laundry detergent and the cleaning composition were admixed with particular concentrations of guanidinium hydrochloride and benzisothiazolinone (BIT). The resultant batches of the paint thus prepared were inoculated with a mixture of different bacteria species (bacteria mixture B); the batches of the laundry detergent and cleaning compositions thus prepared were inoculated with a yeast mixture. • Pseudomonas spp. (Pseudomonas oleovorans group) DSM 33933 • Pseudomonas aeruginosa DSM 33935 • Pseudomonas oleovorans DSM 33936 • Pseudomonas spec. DSM 33937 • Pseudomonas aeruginosa DSM 33938 […] The cell suspension of the bacteria mixture was produced by growing the individual bacteria at 30° C. for 24 h in liquid culture on a shaker. The growth medium used for the bacteria was Müller-Hinton liquid medium. After growing, the individual liquid cultures were centrifuged, and the cells were resuspended in physiological saline solution. […] The cell count of the inoculum was determined in each case by chamber counting. […] The streaked agar plates were then incubated at 30° C. for 48 hours (bacteria) or at 25° C. for 72 hours (yeasts). After incubation, the bacterial or yeast colonies that have grown on the agar plates were visually evaluated and quantified according to the following scheme: [table]

Test [1] relates to yeast mixture. As to the kind of experiment: All-purpose detergent inoculated once with yeast mixture, semiquantitative growth evaluation. Also noted: key: 0: No growth; Minimal growth, 1 to 10 colonies visible over the entire streak; 2: Light growth, maximum 100 colonies; Moderate growth, maximum 300 to 400 colonies; Uniform growth, >400 colonies, single colonies still clearly recognizable; 5: Heavy growth, too many colonies to count, but no growth over the entire streak; 6: Full growth, barely any single colonies still apparent, growth over the entire streak. The note with it: Example 38, all-purpose detergent, +100 ppm BIT. From the text: (§1) In examples 35 to 38 below, synergistic interaction between guanidine and antimicrobial substances with respect to microbial infestation was studied using an emulsion paint and a laundry detergent or cleaning composition by adding particular amounts of guanidine salts and isothiazolinones and examining their stability against microbial infestation: […] The laundry detergent was a heavy-duty laundry detergent without preservatives (pH 8.1), and the cleaning composition was an all-purpose detergent without preservatives (pH 7.6), each likewise made in the laboratory, without addition of the otherwise usual conventional preservatives. To each paint was added—individually and in combination—particular concentrations of guanidinium hydrochloride, benzisothiazolinone (BIT), and a mixture of chloromethylisothiazolinone (CIT) and methylisothiazolinone (MIT). The laundry detergent and the cleaning composition were admixed with particular concentrations of guanidinium hydrochloride and benzisothiazolinone (BIT). The resultant batches of the paint thus prepared were inoculated with a mixture of different bacteria species (bacteria mixture B); the batches of the laundry detergent and cleaning compositions thus prepared were inoculated with a yeast mixture. • Pichia manshurica DSM 12249 • Rhodotorula mucilaginosa DSM 12248 • Candida boidinii DSM 13622 • Candida albicans DSM 1386 […] Further steps for establishment of a cell count of the inoculum suspension of 10^8/ml were effected analogously to the production of the bacteria suspension. […] The streaked agar plates were then incubated at 30° C. for 48 hours (bacteria) or at 25° C. for 72 hours (yeasts). After incubation, the bacterial or yeast colonies that have grown on the agar plates were visually evaluated and quantified according to the following scheme: [table]

In test [2] the test system is yeast mixture. The experiment in a line: Laundry detergent inoculated once with yeast mixture, semiquantitative growth evaluation. Also noted: key: 0: No growth; Minimal growth, 1 to 10 colonies visible over the entire streak; 2: Light growth, maximum 100 colonies; Moderate growth, maximum 300 to 400 colonies; Uniform growth, >400 colonies, single colonies still clearly recognizable; 5: Heavy growth, too many colonies to count, but no growth over the entire streak; 6: Full growth, barely any single colonies still apparent, growth over the entire streak. Particulars: Example 37, laundry detergent, +100 ppm BIT.
Description: as §1

For test [3], the system named is Pseudomonas spec. DSM 115322. As to the kind of experiment: Minimum inhibitory concentrations and synergy index in Müller-Hinton broth. The procedure: (§2) Test organisms used were Gram-negative bacterial species from the group of pseudomonads, Pseudomonas putida DSM 115323 and Pseudomonas spec. DSM 115322. For this purpose, mixtures with different concentrations of the respective active substances were prepared and tested for their effect on the pseudomonads. The test was run in Müller-Hinton broth MHB with a cell density of 10^6 microbes per ml. When organic acids are used as a combination partner with the guanidine, MHB was adjusted to pH 5.5.
(§3) The incubation was run in microplates at 30° C. for 48 hours. After 48 hours, the batches were evaluated for turbidity resulting from growth, and optical density was additionally determined photometrically. In this way, the minimum inhibitory concentrations (MICs) of the two actives were determined individually and in combination.
(§4) The calculation was done according to the standard method of F. C. Kull et al., Applied Microbiology, vol. 9 (1961), p. 538.
(§5) This involves calculating the synergy index (SI) by the following formula:
(§6) [formula] • Qa=concentration of component A in the A+B mixture • QA=concentration of component A as the sole biocide • Qb=concentration of component B in the A+B mixture • QB=concentration of component B as the sole biocide
(§7) If the synergy index is greater than 1, this means that there is antagonism. If the synergy index assumes the value 1, this means that the effect of the two biocides/compounds is additive. If the synergy index assumes a value of less than 1, this means that there is synergism between the two biocides/compounds.

For test [4], the system named is Pseudomonas putida DSM 115323. The test is described as above. The procedure:
as §2, §3, §4, §5, §6, §7

Another test has as its system bacteria mixture A. As to the kind of experiment: Emulsion paint inoculated three times with bacteria mixture A, live bacteria count CFU/g. Particulars: for CFU/g after inoculation: emulsion paint, 7 d. The text has this: In example 34, the synergistic interaction between guanidine and a zinc compound (zinc oxide) with respect to microbial infestation was examined in an emulsion paint by adding particular amounts of guanidine in the form of guanidine hydrochloride and a zinc compound in the form of zinc oxide, and tested for stability to microbial infestation. The paint tested was an emulsion paint based on styrene-acrylate binder (PVK 77%, pH 8.8) for indoor use, produced in the laboratory, without addition of the usual preservatives.
The samples were inoculated repeatedly, three times in total, with a bacterial cell suspension of the following composition (2% v/w).
• Alcaligenes faecalis NCIMB 13145 • Escherichia coli DSM 13631 • Burkholderia cepacia DSM 9241 • Staphylococcus aureus DSM 799 • Pseudomonas aeruginosa DSM 50071 • Pseudomonas putida DSM 13624
The cell suspension of the bacteria mixture A was produced by growing the individual bacteria at 30° C. for 24 h in liquid culture on a shaker. The growth medium used for the bacteria was Müller-Hinton liquid medium. After growing, the individual liquid cultures were centrifuged, and the cells were resuspended in physiological saline solution. In order to adjust the mixture to a total cell count of 10^9/ml, the individual bacteria suspensions, if necessary, were diluted accordingly before being combined with saline solution. The cell count of the inoculum was determined in each case by chamber counting.
After each inoculation and after incubation at 30° C. for 7 days, microbial infestation was evaluated in the samples by determining the live bacteria count per g of paint (colony-forming units, CFU/g). The CFU/g was determined each time by taking an aliquot (1 g) from the previously homogenized sample and running a serial decadic dilution series in physiological saline solution (0.9% NaCl) by streaking on tryptic soy agar, followed by incubation of the agar plates at 30° C. for 48 h.

Take `O=c1[nH]sc2ccccc12` [BIT, 1,2-benzisothiazolin-3-one]: the Bacterial growth in the test on bacteria mixture B (Day 1) is 6; in the test on bacteria mixture B (Day 6), 6; in the test with yeast mixture [2] (Day 1) it was 6; in the test with yeast mixture [2] (Day 3), 4 (Uniform growth, >400 colonies, single colonies still clearly recognizable). For the same compound, the Yeast growth with yeast mixture [1] (Day 1) is recorded as 6; in the test with yeast mixture [1] (Day 3), 4 (Uniform growth, >400 colonies, single colonies still clearly recognizable). Also, the “QB: Concentration of BIT as the sole agent that shows an endpoint” value in test [3] (BIT alone, 48 hours at 30° C.) is 300 ppm. The “Synergy index Qa/QA + Qb/QB” value in test [3] (guanidine and BIT, Qa, Qb) is 1.00.
With `Cn1sc(Cl)cc1=O` [CIT, 5-chloro-2-methyl-4-isothiazolin-3-one], the “QB: Concentration of CIT as the sole agent that shows an endpoint” value in test [4] (CIT alone, 48 hours at 30° C.) is on record as 3.0 ppm. In addition, the “Synergy index Qa/QA + Qb/QB” value in test [4] (guanidine and CIT, Qa, Qb) is on record as 1.00.
As for `[O]=[Zn]` [Zinc oxide, zinc oxide], the CFU/g after inoculation with bacteria mixture A (Zinc oxide 125 ppm (100 ppm Zn), 1. inoculation) is 9.4 × 10^5 CFU/g; in the test with bacteria mixture A (Zinc oxide 125 ppm (100 ppm Zn), 2. inoculation), >10^6 CFU/g; with bacteria mixture A (Zinc oxide 125 ppm (100 ppm Zn), 3. inoculation), >10^6 CFU/g; in the test with bacteria mixture A (Zinc oxide 250 ppm (201 ppm Zn), 1. inoculation), 2.2 × 10^4 CFU/g; in the test on bacteria mixture A (Zinc oxide 250 ppm (201 ppm Zn), 2. inoculation), >10^6 CFU/g; in the test on bacteria mixture A (Zinc oxide 250 ppm (201 ppm Zn), 3. inoculation), >10^6 CFU/g. The CFU/g after inoculation is recorded as 6.6 × 10^4 CFU/g in the test with bacteria mixture A (Zinc oxide 500 ppm (402 ppm Zn), 1. inoculation); >10^6 CFU/g with bacteria mixture A (Zinc oxide 500 ppm (402 ppm Zn), 2. inoculation); >10^6 CFU/g in the test with bacteria mixture A (Zinc oxide 500 ppm (402 ppm Zn), 3. inoculation); 9.9 × 10^3 CFU/g with bacteria mixture A (Zinc oxide 1000 ppm (803 ppm Zn), 1. inoculation); >10^6 CFU/g with bacteria mixture A (Zinc oxide 1000 ppm (803 ppm Zn), 2. inoculation); >10^6 CFU/g in the test on bacteria mixture A (Zinc oxide 1000 ppm (803 ppm Zn), 3. inoculation). For the same compound, the CFU/g after inoculation in the test on bacteria mixture A (Zinc oxide 2500 ppm (2009 ppm Zn), 1. inoculation) is listed as less than 100 CFU/g; with bacteria mixture A (Zinc oxide 2500 ppm (2009 ppm Zn), 2. inoculation), less than 100 CFU/g; with bacteria mixture A (Zinc oxide 2500 ppm (2009 ppm Zn), 3. inoculation), less than 100 CFU/g. For the same compound, the “Synergy index Qa/QA + Qb/QB” value with bacteria mixture A (guanidine and zinc in emulsion paint, Qa, Qb) worked out at 1.00. Also, in the test on bacteria mixture A (zinc (added as zinc oxide) alone in emulsion paint, endpoint after 3 inoculations up to a maximum of 1000 CFU/g), the “QB: Concentration of zinc as the sole agent that shows an endpoint” value is reported as 2009 ppm.

Values taken from patent publication US20260262647A1, “Synergistic Compositions Containing Guanidine” (Thor GmbH, priority 2023, published 2026).
